Measurements as given in patent US9629894B2, “Magnesium-containing oxytocin formulations and methods of use” (Trigemina, Inc., priority 2015, dated 2017).

Tests used:
[1] = system: rat model of facial thermal nociception; test: Rat model of facial thermal nociception: cheek withdrawal latency to radiant heat after nasal administration; assay type: in vivo; settings: for analgesic effect (elevation in latency to withdrawal): 15-300 min
Description: The heat from a projector lamp was focused on the pre-shaved cheek of rats and the intensity was varied to obtain a withdrawal response with a latency of between 6.5 and 8.5 seconds. The intensity applied to achieve such latencies was recorded for each animal. Once stable/acceptable baseline values were obtained, the average latencies for each rat were calculated. After baseline cheek withdrawal latencies were determined for all rats, each rat received a single nasal administration of either normal saline, 15% magnesium chloride in water, or 1% magnesium lactate in water according to the method developed by Frey (Thorne, et al. Neuroscience., 127: 481-496 (2004)). Briefly, rats (under urethane anesthesia) were placed in a supine position with a rolled pad (2×2 gauze) inserted under the dorsal neck to extend the head back toward the supporting surface. The upper surface of the neck was kept horizontal throughout the dosing procedure to maintain the drug solution in the nasal cavity and minimize dripping down the nasopharynx. A 6 μL drop of the respective drug solution was delivered off the tip of a small pipette and presented to the nares on the left side of the rat while occluding the opposite nares. One drop was administered every 2 minutes, alternating between each nares (thus amounting to a four minute interval between doses to the same nares). Each nostril received 4 drops, totaling a combined volume of 48 μL (8 drops of 6 μL each). Drug solutions were coded in order to keep the experimenter blinded as to the substances delivered. Left cheek withdrawal latencies in response to radiant heat stimulation were then measured over the next 3 hours. Withdrawal latencies were measured prior to nasal administration and at 1, 2, and 3 hours post-treatment.
(§1) One of 4 concentrations of dibasic magnesium citrate (1:1 Mg/citrate) was applied to rats and the effects of these applications on responses to noxious thermal stimulation of the face were assessed as described above. Each rat received a single nasal administration of 3, 6, 10, or 12% magnesium citrate in water (6 rats/group) according to the method described above. Left cheek withdrawal latencies in response to radiant heat stimulation were then measured over the following 300 minutes. Withdrawal latencies were measured prior to nasal administration and at 15, 30, 45, 60, 120, 180, 240, and 300 min post-treatment.
as §1, with “3 doses” for “4 concentrations”, “oxytocin in buffered saline” for “dibasic magnesium citrate (1:1 Mg/citrate)”, “1, 4,” for “3, 6, 10,”, “8 μg oxytocin” for “12% magnesium citrate”, “aqueous solution” for “water”
Aqueous solutions containing a combination of magnesium citrate at one of 3 concentrations with oxytocin at one of 3 doses were applied nasally in rats and changes in withdrawal response latency were measured as above. Each rat received a single nasal administration of 1, 4, or 8 μg of oxytocin in aqueous solution containing 3, 6, or 12% magnesium citrate according to the method described above. Left cheek withdrawal latencies in response to radiant heat stimulation were then measured over the following 300 minutes. Withdrawal latencies were measured prior to nasal administration and at 15, 30, 45, 60, 120, 180, 240, and 300 min post-treatment.
Difference scores were generated for each time point after dosing by comparing the respective withdrawal response latency to pre-dosing (baseline) values.

[2] = system: head, neck and shoulder pain; test: Patient with chronic tension-type headache with head, neck and shoulder pain, oxytocin nasal sprays; assay type: in vivo, human
Description: A patient with chronic tension-type headache reported having intense pain in their head, neck and shoulders. The patient took 4 sprays of 7.5 IU/spray oxytocin for a dose of 30 units, at which point their headache pain was gone, but the neck and shoulder pain remained. […] Thus, a higher dose was necessary to affect neck and shoulder pain than was necessary to inhibit head pain in the same patient.

[3] = system: rat paw inflammation model; test: Rat paw inflammation model (complete Freund's adjuvant in forepaw), force withdrawal threshold to mechanical stimulation; assay type: in vivo; settings: nasal, FIG. 8
Description: The analgesic effect of nasally administered oxytocin on cervical nerve-associated inflammatory pain was assessed in a rat paw inflammation model (Martin et al., Pain 1999, 82:199-205). Oxytocin was nasally administered at one of three doses (193, 385 or 768 micrograms in 48 microliters) and force withdrawal thresholds in grams were determined following mechanical stimulation of the inflamed area (forepaw), at regular intervals over the next three hours, and compared against those of vehicle (phosphate buffered saline) treated rats. Injection of complete Freund's adjuvant into the left forepaw of rats produced a robust inflammation of that paw as well as a substantial decrease in the force necessary to elicit a withdrawal response (mechanical allodynia).

[4] = 4 sprays of 7.5 IU/spray oxytocin, dose of 30 units

## [Cl-].[Cl-].[Mg+2] [magnesium chloride]
[1]; 15% magnesium chloride in water, nasal, 2 and 3 hours
  analgesia at 2 and 3 hours after dosing: analgesia continuing
[1]; 15% magnesium chloride in water, nasal, 1 hour
  analgesic effect compared to nasal saline treated rats: strong analgesic effect

## CC(O)C(=O)[O-].CC(O)C(=O)[O-].[Mg+2] (centres unmarked) [magnesium lactate]
[1]; 1% magnesium lactate in water, nasal, rats
  analgesic effect (withdrawal latency): mild analgesic effect
[1]; 1% magnesium lactate in water, nasal, rats, 2 and 3 hours
  latencies at the 2 and 3 hour time points: still substantially elevated
[1]; 1% magnesium lactate in water, single nasal administration 48 μL, rats
  raising response latencies (withdrawal latency to noxious heat): approximately 1.5 s

## CC[C@H](C)[C@@H]1NC(=O)[C@H](Cc2ccc(O)cc2)NC(=O)[C@@H](N)CSSC[C@@H](C(=O)N2CCC[C@H]2C(=O)N[C@@H](CC(C)C)C(=O)NCC(N)=O)NC(=O)[C@H](CC(N)=O)NC(=O)[C@H](CCC(N)=O)NC1=O [oxytocin, Cys-Tyr-Ile-Gln-Asn-Cys-Pro-Leu-Gly]
[2]; [4]
  headache pain: gone
  neck and shoulder pain: remained
[2]; additional 8-10 sprays, or a total of 60-75 IU
  neck and shoulder pain: receded and ceased
[1]; 1 μg oxytocin, nasal
  withdrawal latency: no increase
[1]; 1, 4 or 8 μg oxytocin in aqueous solution, nasal, FIG. 3
  analgesic effect (elevation in latency to withdrawal): clear dose-dependent analgesic effect
[1]; 4 and 8 μg oxytocin, nasal
  latency to withdrawal in response to noxious cheek heating: robust increase in latency to withdrawal
[3]; higher 2 doses, 385 or 768 micrograms in 48 microliters
  reversal of the mechanical allodynia resulting from inflammation: statistically significant partial reversal
[3]; lowest dose, 193 micrograms in 48 microliters
  increasing pain thresholds (force withdrawal threshold): ineffective

## magnesium citrate
[1]; 3, 6, 10 or 12% magnesium citrate in water, nasal, FIG. 2
  analgesic effect (elevation in latency to withdrawal): clear dose-dependent analgesic effect
